Experimental data: patent publication US20170209483A1, “ANTIBIOTIC ACTIVITY OF IRON SEQUESTERING POLYMERS” (UNIVERSITY OF KANSAS, priority 2014, published 2017)
Counter-ions that a name gives are not always drawn.

Tests used:
[1] = system: Pseudomonas aeruginosa strain PA01 wild type; assay: PAI-DHBA as an adjuvant to conventional antibiotics on bacterial growth; assay type: cell-based; details: Ciprofloxacin 1 μg/mL added at 5 h, read at 9 h, versus control
P. aeruginosa = details: concentrations used reflect reported MICs; cited from earlier work
[2] = in vivo; cited from earlier work
[3] = system: Pseudomonas aeruginosa strain PA01 wild type; assay: Comparison to traditional iron chelating agents, bacterial counts; assay type: cell-based; details: EDTA or HBED 500 μM, PAI-DHBA 20 mg, added at inoculation; 5, 6 and 12 h

Compound | Reported MIC (P. aeruginosa) | Bacterial count (CFU/mL) versus control (no chelator) [3] | also measured
O=C(O)c1cn(C2CC2)c2cc(N3CCNCC3)c(F)cc2c1=O [Ciprofloxacin, Ciprofloxacin hydrochloride] | 1 µg/mL | – | Overall reduction in CFU/mL [1]: approximately 4 log units
CC(=O)N(O)CCCCCNC(=O)CCC(=O)N(O)CCCCCNC(=O)CCC(=O)N(O)CCCCCN [DFO, deferoxamine] | – | – | Plasma half-life [2]: ~5.5 min
O=C(O)CN(CCN(CC(=O)O)Cc1ccccc1O)Cc1ccccc1O [HBED, N,N-bis (2-hydroxybenzyl) ethylenediamine-N,N-diacetic acid] | – | small, transient difference | –
Gentamicin sulfate | 24 µg/mL | – | –
sodium ethylene diamine tetraacetate [EDTA] | – | small, transient difference | –
